{"source": "ChEMBL document CHEMBL3880411", "about": "“Multikinase inhibitors for use in the treatment of cancer” (2009)", "key": {"[1]": {"molecular_target": "Tyrosine-protein kinase ABL1 (Homo sapiens) (UniProt P00519)", "sequence (P00519 whole entry)": "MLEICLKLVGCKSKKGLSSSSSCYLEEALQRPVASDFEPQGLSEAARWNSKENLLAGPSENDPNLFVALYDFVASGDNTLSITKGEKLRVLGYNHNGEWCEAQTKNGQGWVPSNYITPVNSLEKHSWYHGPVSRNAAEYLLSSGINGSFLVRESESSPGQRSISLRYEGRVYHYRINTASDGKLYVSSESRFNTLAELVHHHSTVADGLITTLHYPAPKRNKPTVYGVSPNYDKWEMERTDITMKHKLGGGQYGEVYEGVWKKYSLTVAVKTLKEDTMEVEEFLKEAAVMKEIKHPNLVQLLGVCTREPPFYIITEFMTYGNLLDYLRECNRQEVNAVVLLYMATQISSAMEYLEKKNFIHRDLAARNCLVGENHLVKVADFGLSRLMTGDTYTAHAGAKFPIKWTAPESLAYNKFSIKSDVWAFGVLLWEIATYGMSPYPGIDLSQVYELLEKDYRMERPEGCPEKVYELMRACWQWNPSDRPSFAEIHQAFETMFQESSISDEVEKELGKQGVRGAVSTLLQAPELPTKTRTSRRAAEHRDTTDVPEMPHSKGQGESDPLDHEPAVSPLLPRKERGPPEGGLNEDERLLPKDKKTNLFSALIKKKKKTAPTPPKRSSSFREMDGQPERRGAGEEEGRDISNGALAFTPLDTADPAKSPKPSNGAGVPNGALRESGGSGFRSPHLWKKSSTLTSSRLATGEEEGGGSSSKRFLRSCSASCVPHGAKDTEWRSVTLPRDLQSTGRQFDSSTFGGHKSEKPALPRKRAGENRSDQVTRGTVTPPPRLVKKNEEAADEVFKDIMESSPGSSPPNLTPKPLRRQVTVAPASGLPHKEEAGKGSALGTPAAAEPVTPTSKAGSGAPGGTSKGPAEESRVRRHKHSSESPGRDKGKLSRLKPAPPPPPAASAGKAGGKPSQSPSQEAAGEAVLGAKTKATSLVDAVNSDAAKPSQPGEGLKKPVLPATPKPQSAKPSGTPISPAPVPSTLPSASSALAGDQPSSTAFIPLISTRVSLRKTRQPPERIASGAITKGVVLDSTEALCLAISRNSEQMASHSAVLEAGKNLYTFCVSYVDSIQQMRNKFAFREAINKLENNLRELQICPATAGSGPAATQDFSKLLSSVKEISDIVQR", "test": "Inhibition of human Abl assessed as remaining activity at 0.1 uM after 40 mins in presence of [gamma33P-ATP] by scintillation counting"}, "[2]": {"molecular_target": "Tyrosine-protein kinase ABL1 (Homo sapiens) (UniProt P00519)", "test": "Inhibition of human Abl assessed as remaining activity at 1 uM after 40 mins in presence of [gamma33P-ATP] by scintillation counting"}, "[3]": {"molecular_target": "Proto-oncogene tyrosine-protein kinase Src (Homo sapiens) (UniProt P12931)", "sequence (P12931 2-536 limits assumed)": "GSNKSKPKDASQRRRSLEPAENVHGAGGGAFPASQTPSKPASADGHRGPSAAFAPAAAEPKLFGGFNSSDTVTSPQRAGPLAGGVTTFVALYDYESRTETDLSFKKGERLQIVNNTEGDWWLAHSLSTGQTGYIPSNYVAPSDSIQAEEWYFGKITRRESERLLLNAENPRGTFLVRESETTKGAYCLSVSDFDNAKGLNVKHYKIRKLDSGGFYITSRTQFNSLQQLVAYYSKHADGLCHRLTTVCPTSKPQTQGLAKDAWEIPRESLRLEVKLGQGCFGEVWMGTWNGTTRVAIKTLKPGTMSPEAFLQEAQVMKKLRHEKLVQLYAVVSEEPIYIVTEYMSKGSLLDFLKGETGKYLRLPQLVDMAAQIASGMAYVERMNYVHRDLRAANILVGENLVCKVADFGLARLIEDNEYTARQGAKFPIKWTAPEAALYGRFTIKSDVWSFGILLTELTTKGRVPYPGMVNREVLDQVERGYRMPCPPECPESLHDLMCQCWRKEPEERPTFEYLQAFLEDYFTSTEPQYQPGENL", "test": "Inhibition of human c-Src assessed as remaining activity at 0.1 uM after 40 mins in presence of [gamma33P-ATP] by scintillation counting"}, "[4]": {"molecular_target": "Proto-oncogene tyrosine-protein kinase Src (Homo sapiens) (UniProt P12931)", "test": "Inhibition of human c-Src assessed as remaining activity at 1 uM after 40 mins in presence of [gamma33P-ATP] by scintillation counting"}, "[5]": {"molecular_target": "Receptor-type tyrosine-protein kinase FLT3 (Homo sapiens) (UniProt P36888)", "sequence (P36888 whole entry)": "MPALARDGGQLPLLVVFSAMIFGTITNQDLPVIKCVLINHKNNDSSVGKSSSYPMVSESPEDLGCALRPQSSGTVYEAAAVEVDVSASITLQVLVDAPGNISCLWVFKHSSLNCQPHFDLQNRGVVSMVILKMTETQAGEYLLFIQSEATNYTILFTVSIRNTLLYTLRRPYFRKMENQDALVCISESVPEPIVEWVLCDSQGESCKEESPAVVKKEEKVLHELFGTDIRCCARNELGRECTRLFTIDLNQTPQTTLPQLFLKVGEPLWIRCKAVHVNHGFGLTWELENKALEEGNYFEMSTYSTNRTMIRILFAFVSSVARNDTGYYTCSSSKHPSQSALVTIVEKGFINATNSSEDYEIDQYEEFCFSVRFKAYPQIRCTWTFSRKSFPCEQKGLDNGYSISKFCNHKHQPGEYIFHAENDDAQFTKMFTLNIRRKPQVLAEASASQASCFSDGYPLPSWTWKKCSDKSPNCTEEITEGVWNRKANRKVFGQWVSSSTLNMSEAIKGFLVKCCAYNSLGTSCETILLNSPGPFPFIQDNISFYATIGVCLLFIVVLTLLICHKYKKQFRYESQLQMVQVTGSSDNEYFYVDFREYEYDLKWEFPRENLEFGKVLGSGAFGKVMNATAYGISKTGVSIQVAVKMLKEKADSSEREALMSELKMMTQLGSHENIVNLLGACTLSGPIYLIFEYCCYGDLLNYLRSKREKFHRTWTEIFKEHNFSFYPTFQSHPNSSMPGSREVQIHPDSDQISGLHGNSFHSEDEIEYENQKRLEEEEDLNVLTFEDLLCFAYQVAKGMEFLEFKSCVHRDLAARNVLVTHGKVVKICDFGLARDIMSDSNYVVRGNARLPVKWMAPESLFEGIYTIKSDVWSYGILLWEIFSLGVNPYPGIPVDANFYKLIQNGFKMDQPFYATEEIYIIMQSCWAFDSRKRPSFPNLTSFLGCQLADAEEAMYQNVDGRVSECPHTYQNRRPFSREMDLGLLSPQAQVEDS", "test": "Inhibition of human Flt3 assessed as remaining activity at 0.1 uM after 40 mins in presence of [gamma33P-ATP] by scintillation counting"}, "[6]": {"molecular_target": "Receptor-type tyrosine-protein kinase FLT3 (Homo sapiens) (UniProt P36888)", "test": "Inhibition of human Flt3 assessed as remaining activity at 1 uM after 40 mins in presence of [gamma33P-ATP] by scintillation counting"}, "[7]": {"molecular_target": "Tyrosine-protein kinase Fyn (Homo sapiens) (UniProt P06241)", "sequence (P06241 2-537 limits assumed)": "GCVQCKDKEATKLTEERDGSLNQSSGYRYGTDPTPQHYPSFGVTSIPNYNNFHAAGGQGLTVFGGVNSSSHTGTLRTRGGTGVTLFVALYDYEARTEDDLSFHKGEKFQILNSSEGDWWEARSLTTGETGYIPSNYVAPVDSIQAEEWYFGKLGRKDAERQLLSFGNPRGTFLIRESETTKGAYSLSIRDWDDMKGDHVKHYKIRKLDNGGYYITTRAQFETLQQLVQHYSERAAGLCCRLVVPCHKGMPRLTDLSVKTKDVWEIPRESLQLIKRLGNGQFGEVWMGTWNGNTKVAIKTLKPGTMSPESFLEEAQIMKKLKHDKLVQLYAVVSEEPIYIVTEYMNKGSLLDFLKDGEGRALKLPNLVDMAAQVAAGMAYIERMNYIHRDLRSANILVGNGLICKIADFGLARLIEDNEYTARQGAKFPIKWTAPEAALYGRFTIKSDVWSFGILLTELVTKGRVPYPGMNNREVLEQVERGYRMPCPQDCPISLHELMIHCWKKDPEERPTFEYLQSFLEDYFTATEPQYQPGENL", "test": "Inhibition of human Fyn assessed as remaining activity at 1 uM after 40 mins in presence of [gamma33P-ATP] by scintillation counting"}, "[8]": {"molecular_target": "Tyrosine-protein kinase Lck (Homo sapiens) (UniProt P06239)", "sequence (P06239 2-509 limits assumed)": "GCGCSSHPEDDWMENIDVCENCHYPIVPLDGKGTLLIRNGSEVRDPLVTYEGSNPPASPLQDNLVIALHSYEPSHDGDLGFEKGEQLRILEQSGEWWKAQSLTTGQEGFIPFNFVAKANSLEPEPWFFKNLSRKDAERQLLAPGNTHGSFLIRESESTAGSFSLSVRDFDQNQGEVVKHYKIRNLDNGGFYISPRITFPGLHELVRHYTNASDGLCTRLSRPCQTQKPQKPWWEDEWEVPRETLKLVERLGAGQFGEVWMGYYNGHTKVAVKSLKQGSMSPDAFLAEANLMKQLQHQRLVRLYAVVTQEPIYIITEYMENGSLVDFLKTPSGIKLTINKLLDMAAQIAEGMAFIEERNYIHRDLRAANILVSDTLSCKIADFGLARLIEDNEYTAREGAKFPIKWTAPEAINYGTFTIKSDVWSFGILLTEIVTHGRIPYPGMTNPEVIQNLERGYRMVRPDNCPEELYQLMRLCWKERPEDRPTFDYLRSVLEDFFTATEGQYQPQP", "test": "Inhibition of human Lck assessed as remaining activity at 0.1 uM after 40 mins in presence of [gamma33P-ATP] by scintillation counting"}, "[9]": {"molecular_target": "BDNF/NT-3 growth factors receptor (Homo sapiens) (UniProt Q16620)", "sequence (Q16620 32-822 limits assumed)": "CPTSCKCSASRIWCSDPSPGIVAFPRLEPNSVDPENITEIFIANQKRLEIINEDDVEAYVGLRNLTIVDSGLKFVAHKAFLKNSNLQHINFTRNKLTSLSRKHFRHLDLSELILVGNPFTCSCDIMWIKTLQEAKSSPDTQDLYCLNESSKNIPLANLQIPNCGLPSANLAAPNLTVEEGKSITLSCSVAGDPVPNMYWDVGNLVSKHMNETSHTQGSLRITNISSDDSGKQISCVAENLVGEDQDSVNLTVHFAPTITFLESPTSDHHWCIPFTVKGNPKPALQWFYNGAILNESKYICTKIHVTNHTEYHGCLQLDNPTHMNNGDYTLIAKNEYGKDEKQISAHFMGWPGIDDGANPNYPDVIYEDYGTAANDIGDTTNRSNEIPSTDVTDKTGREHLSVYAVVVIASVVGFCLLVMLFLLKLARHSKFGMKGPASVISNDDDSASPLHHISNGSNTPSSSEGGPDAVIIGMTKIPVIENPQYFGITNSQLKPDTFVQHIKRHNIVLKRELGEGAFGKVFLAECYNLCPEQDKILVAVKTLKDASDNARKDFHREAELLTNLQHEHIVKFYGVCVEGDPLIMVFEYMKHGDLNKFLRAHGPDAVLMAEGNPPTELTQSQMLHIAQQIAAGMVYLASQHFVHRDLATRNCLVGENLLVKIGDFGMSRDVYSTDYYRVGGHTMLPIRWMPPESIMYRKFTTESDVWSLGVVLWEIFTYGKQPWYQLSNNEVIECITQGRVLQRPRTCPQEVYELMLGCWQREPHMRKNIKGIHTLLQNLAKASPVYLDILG", "test": "Inhibition of human TrkB assessed as remaining activity at 0.1 uM after 40 mins in presence of [gamma33P-ATP] by scintillation counting"}, "[10]": {"molecular_target": "BDNF/NT-3 growth factors receptor (Homo sapiens) (UniProt Q16620)", "test": "Inhibition of human TrkB assessed as remaining activity at 1 uM after 40 mins in presence of [gamma33P-ATP] by scintillation counting"}, "[11]": {"test": "Cytotoxicity against human MCF7 cells assessed as reduction in cell viability after 96 hrs by CellTiter-Glo luminescence assay or methylene blue assay", "type": "functional, cell-based", "settings": "MCF7, 96 h"}, "[12]": {"test": "Cytotoxicity against human MDA-MB-435 cells expressing B-RAF V600E mutant assessed as reduction in cell viability after 96 hrs by CellTiter-Glo luminescence assay or methylene blue assay", "type": "functional, cell-based", "settings": "MDA-MB-435, 96 h"}, "[13]": {"test": "Cytotoxicity against human DU4475 cells expressing B-RAF V600E mutant assessed as reduction in cell viability after 96 hrs by CellTiter-Glo luminescence assay or methylene blue assay", "type": "functional, cell-based", "settings": "DU-4475, 96 h"}, "[14]": {"test": "Cytotoxicity against human DLD1 cells expressing K-ras G13D mutant assessed as reduction in cell viability after 96 hrs by CellTiter-Glo luminescence assay or methylene blue assay", "type": "functional, cell-based", "settings": "DLD-1, 96 h"}, "[15]": {"test": "Cytotoxicity against human SK-MEL-2 cells expressing N-ras Q61R mutant assessed as reduction in cell viability after 96 hrs by CellTiter-Glo luminescence assay or methylene blue assay", "type": "functional, cell-based", "settings": "SK-MEL-2, 96 h"}, "[16]": {"test": "Cytotoxicity against human SK-MEL-3 cells expressing B-RAF V600E mutant assessed as reduction in cell viability after 96 hrs by CellTiter-Glo luminescence assay or methylene blue assay", "type": "functional, cell-based", "settings": "SK-MEL3, 96 h"}, "[17]": {"test": "Cytotoxicity against human SK-MEL-24 cells expressing B-RAF V600E mutant assessed as reduction in cell viability after 96 hrs by CellTiter-Glo luminescence assay or methylene blue assay", "type": "functional, cell-based", "settings": "SK-MEL-24, 96 h"}, "[18]": {"test": "Cytotoxicity against human SK-MEL-31 cells expressing B-RAF V600E mutant assessed as reduction in cell viability after 96 hrs by CellTiter-Glo luminescence assay or methylene blue assay", "type": "functional, cell-based"}, "[19]": {"test": "Cytotoxicity against human LoVo cells expressing K-ras G13D mutant assessed as reduction in cell viability after 96 hrs by CellTiter-Glo luminescence assay or methylene blue assay", "type": "functional, cell-based"}, "[20]": {"test": "Cytotoxicity against human SW620 cells expressing K-ras G12V mutant assessed as reduction in cell viability after 96 hrs by CellTiter-Glo luminescence assay or methylene blue assay", "type": "functional, cell-based", "settings": "SW-620, 96 h"}, "[21]": {"test": "Cytotoxicity against human COLO205 cells expressing B-RAF V600E mutant assessed as reduction in cell viability after 96 hrs by CellTiter-Glo luminescence assay or methylene blue assay", "type": "functional, cell-based", "settings": "COLO 205, 96 h"}, "[22]": {"test": "Cytotoxicity against human HT-29 cells expressing B-RAF V600E mutant assessed as reduction in cell viability after 96 hrs by CellTiter-Glo luminescence assay or methylene blue assay", "type": "functional, cell-based", "settings": "HT-29, 96 h"}, "[23]": {"test": "Cytotoxicity against human MIAPaCa2 cells expressing K-ras G12C mutant assessed as reduction in cell viability after 96 hrs by CellTiter-Glo luminescence assay or methylene blue assay", "type": "functional, cell-based", "settings": "MIA PaCa-2, 96 h"}, "[24]": {"test": "Cytotoxicity against human PANC1 cells expressing K-ras G12D mutant assessed as reduction in cell viability after 96 hrs by CellTiter-Glo luminescence assay or methylene blue assay", "type": "functional, cell-based", "settings": "PANC-1, 96 h"}, "[25]": {"test": "Cytotoxicity against human MES-SA cells assessed as reduction in cell viability after 96 hrs by CellTiter-Glo luminescence assay or methylene blue assay", "type": "functional, cell-based"}, "[26]": {"test": "Cytotoxicity against human MES-SA/Dx5-Rx1 cells assessed as reduction in cell viability after 96 hrs by CellTiter-Glo luminescence assay or methylene blue assay", "type": "functional, cell-based"}, "[27]": {"test_system": "LOX", "test": "Antitumor activity against human LOX cells expressing B-RAF V600E mutant xenografted in athymic mouse assessed as tumor regression at 10 to 40 mg/kg, iv administered for two weekly rounds of five injections daily with two-day rest period between the rounds measured twice weekly from first day of treatment", "type": "functional, organism-based"}, "[28]": {"test": "Antiproliferative activity against human THP1 cells after 96 hrs by MTT assay", "type": "functional, cell-based", "settings": "THP-1, 96 h"}, "[29]": {"test": "Antiproliferative activity against human K562 cells after 96 hrs by MTT assay", "type": "functional, cell-based", "settings": "K562, 96 h"}, "[30]": {"test": "Antiproliferative activity against human U266 cells after 96 hrs by MTT assay", "type": "functional, cell-based", "settings": "U-266, 96 h"}, "[31]": {"test": "Antiproliferative activity against human RPMI8226 cells after 96 hrs by MTT assay", "type": "functional, cell-based", "settings": "RPMI-8226, 96 h"}, "[32]": {"test": "Antiproliferative activity against human RL cells after 96 hrs by MTT assay", "type": "functional, cell-based"}, "[33]": {"test": "Antiproliferative activity against human NALM6 cells after 96 hrs by MTT assay", "type": "functional, cell-based", "settings": "NALM-6, 96 h"}, "[34]": {"test_system": "Receptor-type tyrosine-protein kinase FLT3 (Homo sapiens), P36888 [UNDEFINED MUTATION]", "sequence (P36888 whole entry, looked up, change not shown)": "as the sequence (P36888 whole entry) above", "test": "Inhibition of Flt-3 activation mutant phosphorylation in human MV4-11 cells after 24 hrs by Western blot analysis", "type": "cell-based"}, "[35]": {"test": "Antiproliferative activity against human MV4-11 cells expressing Flt-3 activation mutant after 96 hrs by CellTiter-Glo luminescence assay", "type": "functional, cell-based", "settings": "MV4-11, 96 h"}, "[36]": {"molecular_target": "Nuclear factor NF-kappa-B complex (Homo sapiens) (UniProt Q00653+P19838+Q04206)", "test": "Inhibition of NFkappaB (unknown origin)", "type": "protein-complex assay"}}, "note": "Activity calls are given as the source filed them. No cut-off for these calls is given here.", "data": [{"smiles": "CCNc1cc(O)c2c(c1)/C=C/C[C@H](O)[C@H](O)C(=O)/C=C\\[C@@H](C)[C@H](C)OC2=O", "note": "[E-6201]", "values": [{"measurement": "Activity", "setting": "[1]", "result": 51, "unit": "%"}, {"measurement": "Activity", "setting": "[2]", "result": 15, "unit": "%"}, {"measurement": "Activity", "setting": "[3]", "result": 31, "unit": "%"}, {"measurement": "Activity", "setting": "[4]", "result": 1, "unit": "%"}, {"measurement": "Activity", "setting": "[5]", "result": 33, "unit": "%"}, {"measurement": "Activity", "setting": "[6]", "result": 6, "unit": "%"}, {"measurement": "Activity", "setting": "[7]", "result": 0, "unit": "%"}, {"measurement": "Activity", "setting": "[8]", "result": 27, "unit": "%"}, {"measurement": "Activity", "setting": "[9]", "result": 24, "unit": "%"}, {"measurement": "Activity", "setting": "[10]", "result": 4, "unit": "%"}, {"measurement": "IC50", "setting": "[11]", "result": "> 10", "unit": "µM"}, {"measurement": "IC50", "setting": "[12]", "result": 71, "unit": "nM"}, {"measurement": "IC50", "setting": "[13]", "result": 52, "unit": "nM"}, {"measurement": "IC50", "setting": "[14]", "result": 649, "unit": "nM"}, {"measurement": "IC50", "setting": "[15]", "result": 135, "unit": "nM"}, {"measurement": "IC50", "setting": "[16]", "result": 24, "unit": "nM"}, {"measurement": "IC50", "setting": "[17]", "result": 66, "unit": "nM"}, {"measurement": "IC50", "setting": "[18]", "result": 225, "unit": "nM"}, {"measurement": "IC50", "setting": "[19]", "result": 132, "unit": "nM"}, {"measurement": "IC50", "setting": "[20]", "result": 282, "unit": "nM"}, {"measurement": "IC50", "setting": "[21]", "result": 43, "unit": "nM"}, {"measurement": "IC50", "setting": "[22]", "result": 84, "unit": "nM"}, {"measurement": "IC50", "setting": "[23]", "result": 734, "unit": "nM"}, {"measurement": "IC50", "setting": "[24]", "result": "> 10", "unit": "µM"}, {"measurement": "IC50", "setting": "[25]", "result": 7.49, "unit": "µM"}, {"measurement": "IC50", "setting": "[26]", "result": 1590, "unit": "nM"}, {"measurement": "Activity", "setting": "[27]", "result": "Active"}, {"measurement": "IC50", "setting": "[28]", "result": 120, "unit": "nM"}, {"measurement": "IC50", "setting": "[29]", "result": 1800, "unit": "nM"}, {"measurement": "IC50", "setting": "[30]", "result": 950, "unit": "nM"}, {"measurement": "IC50", "setting": "[31]", "result": "> 7.05", "unit": "µM"}, {"measurement": "IC50", "setting": "[32]", "result": 1650, "unit": "nM"}, {"measurement": "IC50", "setting": "[33]", "result": 620, "unit": "nM"}, {"measurement": "inhibition", "setting": "[34]", "result": "Dose-dependent effect"}, {"measurement": "IC50", "setting": "[35]", "result": 8.2, "unit": "nM"}, {"measurement": "inhibition", "setting": "[36]", "result": "Active"}]}]}
